What all share (type): nucleic-acid assay
Assay [1] has as its system Nucleic Acid. Description: The compound was tested for its binding affinity to calf thymus DNA by using ethidium displacement assay. The note with it: Bos taurus.
The subject of assay [2] is Nucleic Acid. Description: The compound was tested for its binding affinity to T4 ethidium displacement assay.
The subject of assay [3] is Nucleic Acid. Description: The compound was tested for its binding affinity to Poly (dG-dC) by using ethidium displacement assay.
Assay [4] deals with Nucleic Acid. Description: The compound was tested for its binding affinity to Poly (dA-dT) by using ethidium displacement assay.

Consider `CN(C)CCCNC(=O)c1ccc(C(=O)Nc2cccc(NC(=O)CCCN(C)C)c2)cc1`, for which the C50 in the assay on Nucleic Acid [1] was found to be 31.9 µM; with Nucleic Acid [2] it was 27.1 µM; with Nucleic Acid [3] it was 142 µM; in the assay with Nucleic Acid [4], 1.9 µM.
In the same order, the values of `CN(C)CCCNC(=O)Nc1ccc(NC(=O)c2ccc(C(=O)NCCCN(C)C)cc2)cc1` are 44.8 µM, 35.2 µM, 77.3 µM and 23.5 µM.
Regarding `CN(C)CCCNC(=O)Nc1cccc(NC(=O)c2ccc(C(=O)NCCCN(C)C)cc2)c1`, the C50 in the assay on Nucleic Acid [1] was 43.5 µM; in the assay with Nucleic Acid [2] it was 28.6 µM; with Nucleic Acid [3] it was 222 µM; in the assay with Nucleic Acid [4], 4.2 µM.
In the case of `C[n+]1ccc(Nc2ccc(NC(=O)c3ccc(Nc4cc[n+](C)c5ccccc45)cc3)cc2)cc1`, the C50 in the assay with Nucleic Acid [3] was 2.8 µM; in the assay with Nucleic Acid [4], 0.17 µM.
For the molecule `N=C(N)c1ccc(/N=N/Nc2ccc(C(=N)N)cc2)cc1`, the C50 with Nucleic Acid [3] came to 5.7 µM; with Nucleic Acid [4], 0.9 µM.
In the same order, the values of `CN1CCN(c2ccc3[nH]c(-c4ccc5[nH]c(-c6ccc(O)cc6)nc5c4)nc3c2)CC1` are 1.4 µM and 0.2 µM.
As for `CN(C)CCCNC(=O)c1cccc(C(=O)Nc2ccc(NC(=O)CCCN(C)C)cc2)c1`, the C50 turned out to be 47.3 µM in the assay with Nucleic Acid [1], 35.6 µM in the assay with Nucleic Acid [2], 55.6 µM in the assay with Nucleic Acid [3] and 28.4 µM in the assay with Nucleic Acid [4].

Values taken from ChEMBL document CHEMBL1130447, “Two-ring DNA minor-groove binders consisting of readily available, di-substituted benzene derivatives” (Bioorg Med Chem Lett, 1997).
